In patent US12552825B2 (Zikani Therapeutics, Inc., priority 2019, dated 2026):
Values after ≈ are worked out from the molar mass of the structure shown.

Columns and labels:
Assay type in all cases: cell-based
[1] = system: S. aureus MP-12; experiment: microbe, parasite or virus in culture; conditions: Staphylococcus aureus, MP12, read-out: MIC S. aureus MP-12
[2] = system: K. pneumoniae MP-648; experiment: MIC determination by CLSI broth dilution, K. pneumoniae MP-648; conditions: Klebsiella pneumoniae, MP648, CLSI broth dilution; strain MP-648
[3] = system: A. baumannii MP-15; experiment: MIC determination by CLSI broth dilution, A. baumannii MP-15; conditions: Acinetobacter baumannii, MP15, strain MP-15, read-out: MIC A. baumanii MP-15
[4] = system: P. aeruginosa MP-3; experiment: MIC determination by CLSI broth dilution, P. aeruginosa MP-3; conditions: Pseudomonas aeruginosa, MP3, strain MP-3
[5] = system: E. coli MP-4; experiment: MIC determination by CLSI broth dilution, E. coli MP-4; conditions: Escherichia coli, MP4, CLSI broth dilution; strain MP-4
[6] = system: K. pneumoniae MP-546; experiment: MIC determination by CLSI broth dilution, K. pneumoniae MP-546; conditions: Klebsiella pneumoniae, MP546, CLSI broth dilution; strain MP-546

Compound	MIC [1] [mg/L]	MIC [2] [mg/L]	MIC [3] [mg/L]	MIC [4] [mg/L]	MIC [5] [mg/L]	MIC [6] [mg/L]
CCN1CCC(C[C@@H]2COC(=O)C(C)(C)C(=O)[C@H](C)[C@@H](O[C@@H]3O[C@H](C)C[C@H](N(C)C)[C@H]3O)[C@](C)(OC)C[C@@H](C)CN2CC)CC1 [Compound 118, (3R,6R,8R,9R,10R)-9-(((2S,3R,4S,6R)-4-(dimethylamino)-3-hydroxy-6-methyltetrahydro-2H-pyran-2-yl)oxy)-4-ethyl-3-((1-ethylpiperidin-4-yl)methyl)-8-methoxy-6,8,10,12,12-pentamethyl-1-oxa-4-azacyclotridecane-11,13-dione]	4 to 32 (≈ 6.25 to 50 µM)	< 4	4 to 32 (≈ 6.25 to 50 µM)	> 32	< 4	< 4
CO[C@]1(C)C[C@@H](C)CN(C)[C@@H](CCCN2CCc3ccccc3C2)COC(=O)C(C)(C)C(=O)[C@H](C)[C@H]1O[C@@H]1O[C@H](C)C[C@H](N(C)C)[C@H]1O [Compound 120, (3S,6R,8R,9R,10R)-3-(3-(3,4-dihydroisoquinolin-2 (1H)-yl)propyl)-9-(((2S,3R,4S,6R)-4-(dimethylamino)-3-hydroxy-6-methyltetrahydro-2H-pyran-2-yl)oxy)-8-methoxy-4,6,8,10,12,12-hexamethyl-1-oxa-4-azacyclotridecane-11,13-dione]	< 4	< 4	4 to 32 (≈ 5.94 to 47.5 µM)	> 32	< 4	< 4
CO[C@]1(C)C[C@@H](C)CN(CC(C)C)[C@@H](CCCN2CCCCC2)COC(=O)C(C)(C)C(=O)[C@H](C)[C@H]1O[C@@H]1O[C@H](C)C[C@H](N(C)C)[C@H]1O [Compound 121, (3S,6R,8R,9R,10R)-9-(((2S,3R,4S,6R)-4-(dimethylamino)-3-hydroxy-6-methyltetrahydro-2H-pyran-2-yl)oxy)-4-isobutyl-8-methoxy-6,8,10,12,12-pentamethyl-3-(3-(piperidin-1-yl)propyl)-1-oxa-4-azacyclotridecane-11,13-dione]	4 to 32 (≈ 5.99 to 47.9 µM)	4 to 32 (≈ 5.99 to 47.9 µM)	> 32	> 32	< 4	4 to 32 (≈ 5.99 to 47.9 µM)
CO[C@]1(C)C[C@@H](C)CN(C)[C@@H](CCCN2CCC[C@H]2C)COC(=O)C(C)(C)C(=O)[C@H](C)[C@H]1O[C@@H]1O[C@H](C)C[C@H](N(C)C)[C@H]1O [Compound 122, (3S,6R,8R,9R,10R)-9-(((2S,3R,4S,6R)-4-(dimethylamino)-3-hydroxy-6-methyltetrahydro-2H-pyran-2-yl)oxy)-8-methoxy-4,6,8,10,12,12-hexamethyl-3-(3-((R)-2-methylpyrrolidin-1-yl)propyl)-1-oxa-4-azacyclotridecane-11,13-dione]	4 to 32 (≈ 6.39 to 51.1 µM)	< 4	> 32	> 32	< 4	< 4
CO[C@]1(C)C[C@@H](C)CN(C)[C@@H](CCCN2CCC[C@@H]2C(F)(F)F)COC(=O)C(C)(C)C(=O)[C@H](C)[C@H]1O[C@@H]1O[C@H](C)C[C@H](N(C)C)[C@H]1O [Compound 123, (3S,6R,8R,9R,10R)-9-(((2S,3R,4S,6R)-4-(dimethylamino)-3-hydroxy-6-methyltetrahydro-2H-pyran-2-yl)oxy)-8-methoxy-4,6,8,10,12,12-hexamethyl-3-(3-((R)-2-(trifluoromethyl)pyrrolidin-1-yl)propyl)-1-oxa-4-azacyclotridecane-11,13-dione]	> 32	> 32	> 32	> 32	> 32	> 32
CO[C@]1(C)C[C@@H](C)CN(C)[C@@H](CCCN2CC[C@H](F)C2)COC(=O)C(C)(C)C(=O)[C@H](C)[C@H]1O[C@@H]1O[C@H](C)C[C@H](N(C)C)[C@H]1O [Compound 125, (3S,6R,8R,9R,10R)-9-(((2S,3R,4S,6R)-4-(dimethylamino)-3-hydroxy-6-methyltetrahydro-2H-pyran-2-yl)oxy)-3-(3-((S)-3-fluoropyrrolidin-1-yl)propyl)-8-methoxy-4,6,8,10,12,12-hexamethyl-1-oxa-4-azacyclotridecane-11,13-dione]	4 to 32 (≈ 6.35 to 50.8 µM)	4 to 32 (≈ 6.35 to 50.8 µM)	> 32	> 32	< 4	< 4
CCCN1C[C@H](C)C[C@@](C)(OC)[C@H](O[C@@H]2O[C@H](C)C[C@H](N(C)C)[C@H]2O)[C@@H](C)C(=O)C(C)(C)C(=O)OC[C@@H]1CCCN1Cc2ccccc2C1 [Compound 126, (3S,6R,8R,9R,10R)-9-(((2S,3R,4S,6R)-4-(dimethylamino)-3-hydroxy-6-methyltetrahydro-2H-pyran-2-yl)oxy)-3-(3-(isoindolin-2-yl)propyl)-8-methoxy-6,8,10,12,12-pentamethyl-4-propyl-1-oxa-4-azacyclotridecane-11,13-dione]	< 4	< 4	4 to 32 (≈ 5.81 to 46.5 µM)	> 32	< 4	< 4
CCCN1C[C@H](C)C[C@@](C)(OC)[C@H](O[C@@H]2O[C@H](C)C[C@H](N(C)C)[C@H]2O)[C@@H](C)C(=O)C(C)(C)C(=O)OC[C@@H]1CCCN1CCCC1 [Compound 127, (3S,6R,8R,9R,10R)-9-(((2S,3R,4S,6R)-4-(dimethylamino)-3-hydroxy-6-methyltetrahydro-2H-pyran-2-yl)oxy)-8-methoxy-6,8,10,12,12-pentamethyl-4-propyl-3-(3-(pyrrolidin-1-yl)propyl)-1-oxa-4-azacyclotridecane-11,13-dione]	4 to 32 (≈ 6.25 to 50 µM)	< 4	> 32	> 32	< 4	< 4
CO[C@]1(C)C[C@@H](C)CN(C)[C@@H](CCCN2CCC(C)(C)CC2)COC(=O)C(C)(C)C(=O)[C@H](C)[C@H]1O[C@@H]1O[C@H](C)C[C@H](N(C)C)[C@H]1O [Compound 128, (3S,6R,8R,9R,10R)-9-(((2S,3R,4S,6R)-4-(dimethylamino)-3-hydroxy-6-methyltetrahydro-2H-pyran-2-yl)oxy)-3-(3-(4,4-dimethylpiperidin-1-yl)propyl)-8-methoxy-4,6,8,10,12,12-hexamethyl-1-oxa-4-azacyclotridecane-11,13-dione]	4 to 32 (≈ 6.12 to 48.9 µM)	< 4	> 32	> 32	< 4	< 4
CCN1C[C@H](C)C[C@@](C)(OC)[C@H](O[C@@H]2O[C@H](C)C[C@H](N(C)C)[C@H]2O)[C@@H](C)C(=O)C(C)(C)C(=O)OC[C@@H]1CCCN1CCCCC1 [Compound 129, (3S,6R,8R,9R,10R)-9-(((2S,3R,4S,6R)-4-(dimethylamino)-3-hydroxy-6-methyltetrahydro-2H-pyran-2-yl)oxy)-4-ethyl-8-methoxy-6,8,10,12,12-pentamethyl-3-(3-(piperidin-1-yl)propyl)-1-oxa-4-azacyclotridecane-11,13-dione]	4 to 32 (≈ 6.25 to 50 µM)	< 4	> 32	> 32	< 4	< 4
CO[C@]1(C)C[C@@H](C)CN(C)[C@H](C[C@H]2C[C@H](N(C)CC3CC3)C2)COC(=O)C(C)(C)C(=O)[C@H](C)[C@H]1O[C@@H]1O[C@H](C)C[C@H](N(C)C)[C@H]1O [Compound 138, (3R,6R,8R,9R,10R)-3-(((1r,3S)-3-((cyclopropylmethyl)(methyl)amino)cyclobutyl)methyl)-9-(((2S,3R,4S,6R)-4-(dimethylamino)-3-hydroxy-6-methyltetrahydro-2H-pyran-2-yl)oxy)-8-methoxy-4,6,8,10,12,12-hexamethyl-1-oxa-4-azacyclotridecane-11,13-dione]	< 4	< 4	> 32	> 32	< 4	< 4
CCN1C[C@H](C)C[C@@](C)(OC)[C@H](O[C@@H]2O[C@H](C)C[C@H](N(C)C)[C@H]2O)[C@@H](C)C(=O)C(C)(C)C(=O)OC[C@H]1CCCN1CCCCC1 [Compound 140, (3R,6R,8R,9R,10R)-9-(((2S,3R,4S,6R)-4-(dimethylamino)-3-hydroxy-6-methyltetrahydro-2H-pyran-2-yl)oxy)-4-ethyl-8-methoxy-6,8,10,12,12-pentamethyl-3-(3-(piperidin-1-yl)propyl)-1-oxa-4-azacyclotridecane-11,13-dione]	4 to 32 (≈ 6.25 to 50 µM)	< 4	> 32	> 32	< 4	< 4
CO[C@]1(C)C[C@@H](C)CN(CC(C)C)[C@@H](CCCN2CCc3ccccc3C2)COC(=O)C(C)(C)C(=O)[C@H](C)[C@H]1O[C@@H]1O[C@H](C)C[C@H](N(C)C)[C@H]1O [Compound 141, (3S,6R,8R,9R,10R)-3-(3-(3,4-dihydroisoquinolin-2 (1H)-yl)propyl)-9-(((2S,3R,4S,6R)-4-(dimethylamino)-3-hydroxy-6-methyltetrahydro-2H-pyran-2-yl)oxy)-4-isobutyl-8-methoxy-6,8,10,12,12-pentamethyl-1-oxa-4-azacyclotridecane-11,13-dione]	< 4	4 to 32 (≈ 5.59 to 44.7 µM)	> 32	> 32	< 4	< 4
CCCN1C[C@H](C)C[C@@](C)(OC)[C@H](O[C@@H]2O[C@H](C)C[C@H](N(C)C)[C@H]2O)[C@@H](C)C(=O)C(C)(C)C(=O)OC[C@H]1CCCN1CCCC1 [Compound 144, (3R,6R,8R,9R,10R)-9-(((2S,3R,4S,6R)-4-(dimethylamino)-3-hydroxy-6-methyltetrahydro-2H-pyran-2-yl)oxy)-8-methoxy-6,8,10,12,12-pentamethyl-4-propyl-3-(3-(pyrrolidin-1-yl)propyl)-1-oxa-4-azacyclotridecane-11,13-dione]	< 4	< 4	> 32	< 4	< 4	< 4
